# Source: ChEMBL document CHEMBL4400532, “Histone methyl transferases: A class of epigenetic opportunities to counter uncontrolled cell proliferation” (Eur J Med Chem, 2019)
# Assays:
# [1] = tested on: HCT-116; assay: Cytotoxicity against human HCT116 cells after 72 hrs by CCK8 assay; type: functional, cell-based; conditions: HCT-116, 72 h
# [2] = tested on: CCD-18Co; assay: Cytotoxicity against human CCD-18Co cells after 72 hrs by CCK8 assay; type: cell-based
# [3] = tested on: A549; assay: Cytotoxicity against human A549 cells after 72 hrs by CCK8 assay; type: functional, cell-based; conditions: A549, 72 h
# [4] = tested on: HFL1; assay: Cytotoxicity against human HFL1 cells after 72 hrs by CCK8 assay; type: cell-based; conditions: HFL1, 72 h
# [5] = tested on: PC-14; assay: Cytotoxicity against human PC14 cells after 72 hrs by CCK8 assay; type: functional, cell-based; conditions: PC-14, 72 h
# [6] = molecular target: Histone-lysine N-methyltransferase, H3 lysine-79 specific (Homo sapiens, UniProt Q8TEK3); assay: Inhibition of DOT1L in human THP1 cells assessed as reduction in H3K79 methylation measured after 7 days; type: cell-based
# [7] = molecular target: Histone-lysine N-methyltransferase EZH2 (Homo sapiens, UniProt Q15910); assay: Inhibition of EZH2 (unknown origin)
# [8] = molecular target: T1, Histone-arginine methyltransferase CARM1 (Homo sapiens, UniProt Q86X55); assay: Inhibition of CARM1 (unknown origin)
# T1 sequence (Q86X55 whole entry): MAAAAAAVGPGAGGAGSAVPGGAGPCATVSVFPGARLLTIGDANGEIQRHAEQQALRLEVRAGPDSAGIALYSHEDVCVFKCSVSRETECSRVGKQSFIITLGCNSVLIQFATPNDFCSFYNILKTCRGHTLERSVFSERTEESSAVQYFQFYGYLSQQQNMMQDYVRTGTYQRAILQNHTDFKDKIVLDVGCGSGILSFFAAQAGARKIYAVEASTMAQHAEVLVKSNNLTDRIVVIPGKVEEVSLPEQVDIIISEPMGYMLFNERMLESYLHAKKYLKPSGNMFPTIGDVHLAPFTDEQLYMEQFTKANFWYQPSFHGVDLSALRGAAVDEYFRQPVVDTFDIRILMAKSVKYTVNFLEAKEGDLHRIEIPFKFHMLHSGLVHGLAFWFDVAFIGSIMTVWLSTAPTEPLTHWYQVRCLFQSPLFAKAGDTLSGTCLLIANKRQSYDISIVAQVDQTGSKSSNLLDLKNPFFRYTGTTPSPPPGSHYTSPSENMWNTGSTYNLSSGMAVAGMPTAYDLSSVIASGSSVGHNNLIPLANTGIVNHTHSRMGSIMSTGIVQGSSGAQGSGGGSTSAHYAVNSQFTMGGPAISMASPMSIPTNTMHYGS
# [9] = molecular target: Protein arginine N-methyltransferase 5 (Homo sapiens, UniProt O14744); assay: Inhibition of PRMT5 (unknown origin)
# [10] = molecular target: T2, Histone-lysine N-methyltransferase EHMT2 (Homo sapiens, UniProt Q96KQ7); assay: Inhibition of EHMT2 (unknown origin)
# T2 sequence (Q96KQ7 whole entry): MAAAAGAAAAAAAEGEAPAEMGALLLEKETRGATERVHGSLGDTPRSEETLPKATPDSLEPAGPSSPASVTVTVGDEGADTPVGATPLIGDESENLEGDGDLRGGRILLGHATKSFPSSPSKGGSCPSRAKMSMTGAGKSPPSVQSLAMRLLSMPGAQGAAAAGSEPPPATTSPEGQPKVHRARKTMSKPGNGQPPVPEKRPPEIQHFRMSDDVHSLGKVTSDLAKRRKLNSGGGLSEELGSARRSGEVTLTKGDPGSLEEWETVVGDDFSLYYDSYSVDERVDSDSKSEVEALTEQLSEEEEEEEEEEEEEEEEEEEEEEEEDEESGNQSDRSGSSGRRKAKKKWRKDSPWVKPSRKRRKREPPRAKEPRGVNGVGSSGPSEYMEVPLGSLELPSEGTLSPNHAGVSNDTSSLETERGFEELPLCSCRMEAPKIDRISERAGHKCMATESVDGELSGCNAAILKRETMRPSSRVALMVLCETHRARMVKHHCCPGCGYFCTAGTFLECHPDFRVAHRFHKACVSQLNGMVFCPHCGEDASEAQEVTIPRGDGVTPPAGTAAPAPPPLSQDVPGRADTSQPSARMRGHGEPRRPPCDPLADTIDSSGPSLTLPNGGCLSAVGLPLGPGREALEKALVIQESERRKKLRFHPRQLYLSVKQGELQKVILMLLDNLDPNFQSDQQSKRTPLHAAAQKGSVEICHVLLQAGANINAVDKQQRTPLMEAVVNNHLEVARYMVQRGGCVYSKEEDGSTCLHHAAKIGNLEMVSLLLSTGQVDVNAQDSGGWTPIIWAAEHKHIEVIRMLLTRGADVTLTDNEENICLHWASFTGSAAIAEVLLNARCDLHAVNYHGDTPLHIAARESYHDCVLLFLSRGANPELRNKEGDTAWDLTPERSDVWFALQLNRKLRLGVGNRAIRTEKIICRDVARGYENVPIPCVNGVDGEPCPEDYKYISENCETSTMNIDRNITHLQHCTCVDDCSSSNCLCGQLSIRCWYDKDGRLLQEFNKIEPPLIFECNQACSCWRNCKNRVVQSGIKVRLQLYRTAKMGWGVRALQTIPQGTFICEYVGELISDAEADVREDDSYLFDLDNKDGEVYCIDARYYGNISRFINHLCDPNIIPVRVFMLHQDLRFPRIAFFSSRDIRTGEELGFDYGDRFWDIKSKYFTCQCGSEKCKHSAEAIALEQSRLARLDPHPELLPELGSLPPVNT
# Histone-lysine N-methyltransferase, H3 lysine-79 specific, sequence (Q8TEK3 whole entry): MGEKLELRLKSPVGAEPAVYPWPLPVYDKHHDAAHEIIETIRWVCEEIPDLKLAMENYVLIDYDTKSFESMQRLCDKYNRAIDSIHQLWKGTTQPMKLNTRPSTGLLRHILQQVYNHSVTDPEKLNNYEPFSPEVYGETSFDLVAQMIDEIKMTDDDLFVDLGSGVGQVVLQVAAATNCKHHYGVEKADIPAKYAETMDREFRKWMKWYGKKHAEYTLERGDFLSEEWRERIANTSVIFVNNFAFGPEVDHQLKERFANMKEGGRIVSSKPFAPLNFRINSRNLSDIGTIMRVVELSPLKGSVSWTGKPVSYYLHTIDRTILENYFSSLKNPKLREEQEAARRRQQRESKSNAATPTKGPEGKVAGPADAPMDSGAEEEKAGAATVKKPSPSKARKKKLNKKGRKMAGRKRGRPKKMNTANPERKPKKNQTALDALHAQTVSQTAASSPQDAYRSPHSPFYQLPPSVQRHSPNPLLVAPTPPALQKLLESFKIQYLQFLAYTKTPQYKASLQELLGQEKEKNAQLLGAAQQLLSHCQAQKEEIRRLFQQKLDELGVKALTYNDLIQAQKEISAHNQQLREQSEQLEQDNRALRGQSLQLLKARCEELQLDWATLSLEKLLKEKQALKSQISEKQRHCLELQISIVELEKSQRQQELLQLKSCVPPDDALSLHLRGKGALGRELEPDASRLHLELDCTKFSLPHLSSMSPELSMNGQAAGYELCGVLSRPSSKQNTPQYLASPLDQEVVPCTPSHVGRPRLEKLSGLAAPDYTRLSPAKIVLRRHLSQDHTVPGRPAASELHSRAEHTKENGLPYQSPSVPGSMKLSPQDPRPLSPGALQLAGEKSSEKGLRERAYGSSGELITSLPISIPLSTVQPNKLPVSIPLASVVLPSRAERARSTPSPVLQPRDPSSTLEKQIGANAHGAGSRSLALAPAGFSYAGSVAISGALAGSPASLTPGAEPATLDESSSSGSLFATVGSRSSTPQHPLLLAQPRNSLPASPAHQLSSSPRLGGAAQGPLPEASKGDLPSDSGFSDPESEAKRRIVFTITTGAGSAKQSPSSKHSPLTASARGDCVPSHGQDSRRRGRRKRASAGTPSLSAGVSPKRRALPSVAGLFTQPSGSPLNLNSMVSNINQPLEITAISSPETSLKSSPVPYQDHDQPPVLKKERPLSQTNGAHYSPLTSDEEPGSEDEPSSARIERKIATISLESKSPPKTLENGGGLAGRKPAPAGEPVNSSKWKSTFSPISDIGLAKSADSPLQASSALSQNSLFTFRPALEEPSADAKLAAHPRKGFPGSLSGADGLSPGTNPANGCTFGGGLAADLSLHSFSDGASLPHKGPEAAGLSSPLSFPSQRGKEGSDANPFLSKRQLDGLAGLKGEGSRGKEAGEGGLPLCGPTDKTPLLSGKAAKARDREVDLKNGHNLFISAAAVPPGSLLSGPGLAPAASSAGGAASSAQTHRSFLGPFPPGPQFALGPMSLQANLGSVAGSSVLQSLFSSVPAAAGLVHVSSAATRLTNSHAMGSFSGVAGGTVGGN
# Protein arginine N-methyltransferase 5, sequence (O14744 whole entry): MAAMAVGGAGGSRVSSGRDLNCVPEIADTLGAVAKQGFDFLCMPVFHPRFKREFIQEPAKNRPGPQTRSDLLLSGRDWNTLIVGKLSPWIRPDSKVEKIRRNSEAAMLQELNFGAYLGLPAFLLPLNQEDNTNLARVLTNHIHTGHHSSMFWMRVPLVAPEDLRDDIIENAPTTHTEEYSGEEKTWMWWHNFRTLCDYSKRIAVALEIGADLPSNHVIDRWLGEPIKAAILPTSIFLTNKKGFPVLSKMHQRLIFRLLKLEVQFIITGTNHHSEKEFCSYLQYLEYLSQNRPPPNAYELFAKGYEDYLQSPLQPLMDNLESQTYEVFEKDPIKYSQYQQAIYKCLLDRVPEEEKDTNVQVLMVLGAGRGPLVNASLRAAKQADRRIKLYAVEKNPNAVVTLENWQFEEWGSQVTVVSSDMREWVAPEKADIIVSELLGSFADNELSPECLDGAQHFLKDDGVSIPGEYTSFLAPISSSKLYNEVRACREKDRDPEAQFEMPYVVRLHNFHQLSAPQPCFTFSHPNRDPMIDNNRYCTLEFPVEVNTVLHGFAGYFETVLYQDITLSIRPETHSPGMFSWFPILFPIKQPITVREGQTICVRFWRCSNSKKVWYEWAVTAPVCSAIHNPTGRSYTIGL
# Histone-lysine N-methyltransferase EZH2, sequence (Q15910 whole entry): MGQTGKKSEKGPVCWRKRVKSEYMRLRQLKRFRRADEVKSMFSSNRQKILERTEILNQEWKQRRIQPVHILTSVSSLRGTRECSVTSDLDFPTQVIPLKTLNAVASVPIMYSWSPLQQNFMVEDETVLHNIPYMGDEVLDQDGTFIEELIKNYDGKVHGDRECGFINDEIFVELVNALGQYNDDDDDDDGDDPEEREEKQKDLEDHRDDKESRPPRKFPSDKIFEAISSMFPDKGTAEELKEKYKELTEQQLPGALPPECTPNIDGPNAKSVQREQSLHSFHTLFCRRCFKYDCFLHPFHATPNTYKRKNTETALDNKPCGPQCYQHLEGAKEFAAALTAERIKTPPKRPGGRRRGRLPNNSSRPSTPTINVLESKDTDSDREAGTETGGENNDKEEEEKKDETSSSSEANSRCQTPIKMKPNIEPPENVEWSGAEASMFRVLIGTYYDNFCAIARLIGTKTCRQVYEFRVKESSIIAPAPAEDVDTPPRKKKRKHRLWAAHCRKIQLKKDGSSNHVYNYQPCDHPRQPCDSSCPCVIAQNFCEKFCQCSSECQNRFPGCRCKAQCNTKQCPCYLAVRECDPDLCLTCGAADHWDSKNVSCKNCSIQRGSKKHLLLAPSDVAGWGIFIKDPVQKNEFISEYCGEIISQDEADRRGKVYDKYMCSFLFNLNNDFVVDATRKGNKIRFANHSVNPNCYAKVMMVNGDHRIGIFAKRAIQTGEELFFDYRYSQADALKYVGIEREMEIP
IC50 [6] [µM],IC50 [7] [µM],IC50 [8] [µM],IC50 [9] [µM],IC50 [10] [µM],SMILES,IC50 [1] [µM],IC50 [2] [µM],IC50 [3] [µM],IC50 [4] [µM],IC50 [5] [µM]
,,,,,COc1cc(OC)c(-c2cn3cc(NCCN)c(OC)cc3n2)cc1Cl,< 10,< 10,< 10,< 10,< 10
< 0.1,> 50,> 50,> 50,> 50,CC(CNC(=O)Nc1ccc(C(C)(C)C)cc1)CN(C)C[C@H]1O[C@@H](n2cnc3c(N)ncnc32)[C@H](O)[C@@H]1O (stereo not given in full),,,,,
